Values after ≈ are worked out from the molar mass of the structure shown. Like-named read-outs stand apart in the source and are kept apart here.
Experiments:
Format in all cases: cell-based
[1] = system: E. coli ATCC 25922; test: MIC (CLSI broth microdilution), wild-type E. coli; conditions: Escherichia coli, ATCC25922
Description: (§1) Minimum inhibitory concentration (MIC) values were determined according to the Clinical Laboratory Standards Institute guidelines. Frequency of resistance was determined by plating ~5 × 10^8 bacterial cells on agar-solidified media plates containing test compound at concentrations corresponding to four times the measured solid-media MIC of the strains. Colonies were counted after 24 h, restreaked onto media containing the same concentration of compound, and the MIC remeasured against the assayed compound. Genomic DNA from isolated clones was sequenced by paired-end sequencing on an Illumina MiSeq device. Complete experimental details available in SI Appendix. […]
(§2) Minimum inhibitory concentration (MIC) determination. Broth microdilution and agar dilution
(§3) MIC assays were conducted according to CLSI guidelines (M07-2012). Appropriate inoculation
(§4) suspension density was assessed using a Sensititre Nephelometer with a Sensititre 0.5
McFarland Standard. […]

[2] = system: E. coli ATCC 25922 ΔtolC efflux mutant; test: MIC, E. coli efflux mutant
Description: as §1, §2, §3

[3] = system: K. pneumoniae ATCC 13883; test: MIC, K. pneumoniae, with and without 50% human serum
Description: as §1, §2, §3, §4
McFarland Standard. Serum MICs were conducted in 50% heat-inactivated pooled human

[4] = in vitro
Description: Minimum inhibitory concentration (MIC) determination. Broth microdilution and agar dilution MIC assays were conducted according to CLSI guidelines (M07-2012). Appropriate inoculation suspension density was assessed using a Sensititre Nephelometer with a Sensititre 0.5 McFarland Standard. Serum MICs were conducted in 50% heat-inactivated pooled human serum (Sigma-Aldrich). Serum was heated to 56 °C for one hour and then filtered using a 0.2 µm […]
Strain construction. The efflux-defective P. mirabilis strain EN1490 was constructed using EZ-Tn5 <KAN-2> Transposome mutagenesis with TypeOne Restriction Inhibitor. Approximately 3000 independent clones were screened for increased susceptibility to chloramphenicol (8 mg/L), yielding 2 independent clones with insertions in the gene tolC. […]

[5] = system: HepG2 cells; test: HepG2 cytotoxicity (72 h)
Description: Thermodynamic solubility was assessed by dissolving 2 to 3 mg of test compound to equilibrium in 100 mM KPO4-buffer, pH 7.4. The metabolic stability assay was performed in the presence of human and mouse liver microsomes by measurement of test compounds disappearance over time (60 min). The plasma protein binding assay, including stability estimation, was performed using the RED devices (Thermo Fisher Scientific) in the presence of human and mouse plasma. All samples from the in vitro ADME studies were quantified by liquid chromatography-triple quadrupole mass spectrometry (LC–MS/MS). The assays were performed as previously described ([36]) and the details are available in SI Appendix. Cytotoxicity was assessed by incubation of test compounds in the presence of HepG2 cells for 72 h as previously described ([37]).

[6] = read-out: MIC E. coli ATCC 25922 Wild-type
[7] = Klebsiella pneumoniae, ATCC13883, read-out: MIC K. pneumoniae ATCC 13883 Wild-type
[8] = Homo sapiens, HepG2, 72 h, read-out: HepG2 viability IC50, 72 h
[9] = Klebsiella pneumoniae, ATCC13883, read-out: MIC K. pneumoniae ATCC 13883 In 50% human serum
[10] = ATCC 25922 (Table S4), read-out: MIC E. coli EN0001

SMILES | MIC [1, 6] [µg/mL] | MIC E. coli ATCC 25922 ΔtolC efflux mutant [2] [µg/mL] | MIC [3, 7] [µg/mL] | hemolysis [4] [%] | IC50 [5, 8] [µM] | MIC [3, 9] [µg/mL] | MIC [1, 10] [µg/mL] | MIC ([3]; Klebsiella pneumoniae, ATCC13883; read-out: MIC K. pneumoniae ATCC 13883 In 50% human serum) [µg/mL] | MIC ([3]; Klebsiella pneumoniae, ATCC13883; read-out: MIC K. pneumoniae ATCC 13883 Wild-type) [µg/mL] | IC50 ([5]; Homo sapiens, HepG2, 72 h, read-out: HepG2 viability IC50) [µM] | IC50 ([5]; read-out: HepG2 viability IC50, 72 h) [µM]
CC(=O)N1CCc2cc(S(=O)(=O)N3CCN(c4cccc(C(F)(F)F)c4)CC3)ccc21 [AZ1, reference compound] | > 64 | 2 (≈ 4.41 µM) | > 64 | 2.1 | 22.5 | – | – | – | – | – | –
CN(c1ccc(CNCCN)cc1C(=O)Nc1ccc(S(=O)(=O)N2CCN(c3cc(Cl)cc(Cl)c3)CC2)cc1)S(C)(=O)=O [EBL-3025] | 1 (≈ 1.49 µM) | ≤0.125 | 0.5 (≈ 0.747 µM) | 1.98 | 49 | 0.5 (≈ 0.747 µM) | – | – | – | – | –
Cc1cc(C#N)nc(N2CCN(S(=O)(=O)c3ccc(NC(=O)c4ccccc4N(C)S(C)(=O)=O)cc3)CC2)n1 [EBL-3339] | 1 (≈ 1.76 µM) | ≤0.125 | 0.5 (≈ 0.878 µM) | 0.05 | 29 | 2 (≈ 3.51 µM) | – | – | – | – | –
Cc1cc(C#N)nc(N2CCN(S(=O)(=O)c3ccc(NC(=O)c4cc(CNCCCN)ccc4N(C)S(C)(=O)=O)cc3)CC2)n1.Cl.Cl [EBL-3599] | 2 | ≤0.125 | – | 0.06 | – | – | 2 | 0.25 | 1 | 55 | –
Cc1cc(C#N)nc(N2CCN(S(=O)(=O)c3ccc(NC(=O)c4cc(CN5CC(CN)C5)ccc4N(C)S(C)(=O)=O)cc3)CC2)n1 [EBL-3647] | 2 (≈ 2.99 µM) | ≤0.125 | 0.5 (≈ 0.749 µM) | 0.13 | 54 | 0.25 (≈ 0.374 µM) | 2 (≈ 2.99 µM) | – | – | – | –
CN(c1ccccc1C(=O)Nc1ccc(S(=O)(=O)N2CCCCC2)cc1)S(C)(=O)=O [JEDI-852] | > 64 | 4 (≈ 8.86 µM) | > 64 | 0.03 | > 32 | – | – | – | – | – | > 64
CN(c1ccccc1C(=O)Nc1ccc(S(=O)(=O)N2CCN(c3cccc(C(F)(F)F)c3)CC2)cc1)S(C)(=O)=O [JEDI-1444] | 2 (≈ 3.35 µM) | ≤0.125 | 2 (≈ 3.35 µM) | 0.02 | > 64 | 32 (≈ 53.6 µM) | – | – | – | – | –

Reference: article PMC11009625, “Antibiotic class with potent in vivo activity targeting lipopolysaccharide synthesis in Gram-negative bacteria” (Proceedings of the National Academy of Sciences of the …, 2024)
